Experimental data published in patent US8455553B2, “Methods and compositions for prevention and treatment of inflammatory disease, autoimmune disease and transplant rejection” (The Regents of the University of California, priority 2001, dated 2013).
“Also recorded” adds a separate entry of the source. Where two headings read alike, the source gives them in different places.

Assays:
[1] = cited from earlier work
[2] = tested on: mice that had received piceatannol alone; experiment: Toxicity of piceatannol alone in mice; format: in vivo; settings: for Lethality rate: no LPS
Protocol: (§1) Endotoxic shock was induced by intraperitoneal injection of 1 μg LPS into laboratory mice in the presence of 20 mg D-galactosamine (D-Gal). This regimen leads to a 90-100% lethality rate by 9-12 hours post injection. The following data in Tables 1-3 reports the mortality rate over 28 days of observation. In one experiment, animals were treated intra peritoneally with piceatannol.

[3] = tested on: septic shock induced by 1000 μg LPS intraperitoneally in mice; experiment: Septic shock, high dose model (1000 μg LPS), lethality; format: in vivo; settings: for Mortality, percent dead: Table 3, High Dose Model (1000 μg LPS), 1000 μM pre, 500 μM SC post every 12; for Mortality caused by septic shock: intraperitoneal administration prior to LPS challenge coupled with subcutaneous administration following LPS challenge (Table 3)
Protocol: as §1
In another experiment, 1 mg of LPS was administered intraperitoneally. Piceatannol or tetramethoxy-piceatannol (TMP) were administered intraperitoneally prior to LPS treatment, with some mice receiving subcutaneous doses of either piceatannol or TMP following LPS administration.

[4] = tested on: tyrosine kinase Syk; settings: Geahlen, et al. (1989); cited from earlier work
[5] = tested on: LPS induced gene expression (RANTES, MCP-1, ISG54, TNF); experiment: LPS induced gene expression (interferon regulated genes) in vitro; format: cell-based
[6] = tested on: TNFα; experiment: Production of TNFα in response to LPS in vitro; format: cell-based
[7] = tested on: Ovalbumin immunized mice; experiment: Ovalbumin asthma model, cell infiltration in bronchioalveolar lavage fluid; format: in vivo; settings: 1 mg i.p. daily, FIG. 11
Protocol: Mice (8 animals) were immunized by intraperitoneal (i.p.) injection of Ovalbumin after 2 weeks, The OA solution was administered into the nasal passage by inhalation without (4) or with (4) concurrent piceatannol regimen (1 mg i.p. daily).

[8] = biological target: T1, tyrosine kinase ZAP70 (Homo sapiens, UniProt P43403); settings: Geahlen, et al. (1989); cited from earlier work
T1 sequence (P43403 1-619): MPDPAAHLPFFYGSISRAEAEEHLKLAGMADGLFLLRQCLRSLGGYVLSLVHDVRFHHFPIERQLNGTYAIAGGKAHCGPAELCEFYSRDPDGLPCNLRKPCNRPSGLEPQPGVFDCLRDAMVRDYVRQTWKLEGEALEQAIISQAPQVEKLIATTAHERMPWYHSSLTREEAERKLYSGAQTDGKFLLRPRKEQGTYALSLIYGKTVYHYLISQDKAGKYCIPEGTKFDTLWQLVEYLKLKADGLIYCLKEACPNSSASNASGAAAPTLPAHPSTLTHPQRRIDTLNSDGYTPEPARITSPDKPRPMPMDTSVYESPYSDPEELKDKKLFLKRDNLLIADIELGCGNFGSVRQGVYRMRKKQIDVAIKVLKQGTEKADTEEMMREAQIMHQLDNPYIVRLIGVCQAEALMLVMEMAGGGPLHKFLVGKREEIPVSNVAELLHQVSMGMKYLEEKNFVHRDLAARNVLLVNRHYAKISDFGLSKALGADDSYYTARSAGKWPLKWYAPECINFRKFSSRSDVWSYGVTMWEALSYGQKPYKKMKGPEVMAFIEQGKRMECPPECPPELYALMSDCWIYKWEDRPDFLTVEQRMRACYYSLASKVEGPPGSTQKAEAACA

[9] = biological target: tyrosine kinase Tyk2 (Homo sapiens, UniProt P29597); settings: Su, et al. (2000); cited from earlier work
Sequence of tyrosine kinase Tyk2 (P29597 whole entry): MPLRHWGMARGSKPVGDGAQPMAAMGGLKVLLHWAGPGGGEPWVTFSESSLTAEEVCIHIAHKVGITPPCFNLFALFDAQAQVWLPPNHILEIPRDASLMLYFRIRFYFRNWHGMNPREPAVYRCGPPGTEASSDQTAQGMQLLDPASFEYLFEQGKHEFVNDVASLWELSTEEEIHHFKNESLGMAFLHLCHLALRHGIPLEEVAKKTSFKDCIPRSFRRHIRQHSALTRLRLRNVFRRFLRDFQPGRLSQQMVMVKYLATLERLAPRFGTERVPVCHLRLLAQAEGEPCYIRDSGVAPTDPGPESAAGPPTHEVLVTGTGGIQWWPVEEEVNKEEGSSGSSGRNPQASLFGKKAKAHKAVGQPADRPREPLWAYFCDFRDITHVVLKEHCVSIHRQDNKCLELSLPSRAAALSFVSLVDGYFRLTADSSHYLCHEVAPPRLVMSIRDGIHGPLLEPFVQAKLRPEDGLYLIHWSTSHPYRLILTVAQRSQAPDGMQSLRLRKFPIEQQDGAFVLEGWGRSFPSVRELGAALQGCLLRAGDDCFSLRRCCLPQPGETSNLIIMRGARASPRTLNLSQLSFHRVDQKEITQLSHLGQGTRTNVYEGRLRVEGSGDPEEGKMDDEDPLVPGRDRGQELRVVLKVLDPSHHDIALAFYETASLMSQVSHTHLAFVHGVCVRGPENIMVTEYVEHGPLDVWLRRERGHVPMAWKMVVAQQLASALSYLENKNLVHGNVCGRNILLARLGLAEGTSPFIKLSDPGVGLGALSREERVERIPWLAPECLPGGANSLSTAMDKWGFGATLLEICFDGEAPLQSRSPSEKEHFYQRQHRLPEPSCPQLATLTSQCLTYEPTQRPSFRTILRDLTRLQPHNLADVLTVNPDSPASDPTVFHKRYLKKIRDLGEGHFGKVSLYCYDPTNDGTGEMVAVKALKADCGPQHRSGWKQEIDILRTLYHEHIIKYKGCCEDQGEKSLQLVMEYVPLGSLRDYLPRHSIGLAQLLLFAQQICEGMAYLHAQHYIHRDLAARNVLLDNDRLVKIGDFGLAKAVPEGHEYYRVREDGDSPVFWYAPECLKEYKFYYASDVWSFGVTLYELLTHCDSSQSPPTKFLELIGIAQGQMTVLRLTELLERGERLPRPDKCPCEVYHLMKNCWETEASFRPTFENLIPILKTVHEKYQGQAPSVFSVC

[10] = tested on: MBP-TCR+/STAT1- mice developing spontaneous paralysis; experiment: Experimental autoimmune encephalomyelitis (EAE), model for multiple sclerosis; format: in vivo
Text: Experimental autoimmune encephalomyelitis (EAE) represents a murine model for multiple sclerosis, a TH1 cells mediated demyelinating autoimmune disorder. In this modes, STAT1-deficient mice (Jackson Laboratories, Maine, USA) were crossed with mice carrying a tansgenic T cell receptor against Myelin Basis Protein (MBP) [Lafaille et al. (1994) Cell 78(3):399-408]. The resulting MBP-TCR^+/STAT1^− mice, when on an H2b/u or H2u/u background develop spontaneous paralysis. Typically, in this transgenic system, the disease progresses from early signs of hind leg paralysis (level 2) to the moribund stage of lethal paralysis (level 5) within 4-5 days.
Three mice showing clear signs of hind leg paralysis were injected s.c. with 1 mg piceatannol every 48 hours (FIG. 10). Under this regimen these animals survived for 30 days, at which time piceatannol administration was stopped.

[11] = tested on: endotoxic shock induced by intraperitoneal injection of 1 μg LPS in the presence of 20 mg D-galactosamine in laboratory mice; experiment: Endotoxic shock, low dose model (1 μg LPS + D-Gal), lethality; format: in vivo; settings: for Mortality, percent dead: Table 3, Low Dose Model (1 μg LPS + D-Gal); for Mortality caused by septic shock: intraperitoneal administration prior to LPS challenge (Table 3)
Protocol: as §1, with “piceatannol. […]” for “piceatannol.”

[12] = tested on: IL-6; experiment: Production of IL-6 in response to LPS in vitro; format: cell-based

Oc1cc(O)cc(/C=C/c2ccc(O)c(O)c2)c1 [Piceatannol, 3,3′,4,5′-tetrahydroxy-trans-stilbene]
Water solubility [1]: partially water soluble | Water solubility ([1]; listed as piceatannol): water soluble | Lethality rate ([2]; Table 1, piceatannol 1000 μg intraperitoneal, dead/total, 28 days of observation): 0/8 | Lethality rate ([2]; Table 2, piceatannol 1000 μg (ip)): 0/6 | Lethality rate ([2]; Table 2, piceatannol 1000 μg (iv)): 0/2 | Toxicity in vivo (overall statement) ([2]; data of Tables 1 and 2 / Examples 1 and 3): very low toxicity; also recorded: low toxicity | Acute or chronic toxicity ([2]; healthy animals, repeated high dose (1 mg) intraperitoneal injections): did not detect any acute or chronic toxicity | Acute toxicity (within 2 hours post-injection) ([2]; piceatannol alone, up to 1 mg intraperitoneal or intravenously): no signs of acute (i.e., within 2 hours post-injection) toxicity | Delayed toxicity ([2]; with or without subsequent LPS injection, monitored for several weeks): no signs of delayed toxicity | Lethality rate ([3]; Table 1, LPS 1000 μg ip, piceatannol 500 → 1000 μg ip, 28 days of observation): 3/8 | Mortality, percent dead [3]: 50% | Mortality caused by septic shock [3]: significantly reduced mortality | Inhibition of tyrosine kinase Syk [4]: inhibitor | Concentration that blocks LPS induced gene expression (e.g., RANTES, MCP-1, TNF) [5]: micromolar range | Concentration that blocks LPS induced gene expression (e.g., RANTES, MCP-1, ISG54) ([5]; in vitro): micromolar concentrations; also recorded: micromolar range | Production of TNFα in response to LPS [6]: inhibited | Eosinophils infiltration into the lungs [7]: significant reduction | Lymphocytes infiltration into the lungs [7]: significant reduction | Inhibition of tyrosine kinase ZAP70 [8]: inhibitor | Inhibition of tyrosine kinase Tyk2 [9]: potent inhibitor | Time to complete paralysis and death after administration was stopped ([10]; after 30 days of 1 mg s.c. every 48 hours): Ten | Disease progression ([10]; for the duration of administration, 1 mg s.c. every 48 hours): completely halted disease progression | Survival under treatment ([10]; three mice with hind leg paralysis, 1 mg s.c. every 48 hours, administration stopped at that time): 30 days | Lethality rate ([11]; Table 1, LPS 1 μg (+D-Gal) ip, piceatannol 250 μg ip, 28 days of observation): 5/12 | Lethality rate ([11]; Table 1, LPS 1 μg (+D-Gal) ip, piceatannol 500 μg ip, 28 days of observation): 0/8 | Lethality rate ([11]; Table 2, LPS + D-Gal 1 μg ip, piceatannol 250 μg (ip)): 3/8 | Lethality rate ([11]; Table 2, LPS + D-Gal 1 μg ip, piceatannol 250 μg (iv) + 250 μg (ip)): 0/6 | Lethality rate ([11]; Table 2, LPS + D-Gal 1 μg ip, piceatannol 400 μg (ip)): 0/2 | Mortality, percent dead ([11]; 400 μM ip prior to LPS): 48% | Mortality, percent dead ([11]; 1000 μM ip prior to LPS): 35% | Animals rescued ([11]; administration several hours after LPS challenge, animal model of sepsis): approximately 50% | Protection against endotoxic shock ([11]; combined intravenous and intraperitoneal administration): up to 100% | Mortality caused by septic shock [11]: significantly reducing mortality | Death associated with endotoxic shock ([11]; single administration by either the intravenous or intraperitoneal route): significantly reduced death | Protection against endotoxic shock ([11]; single administration, animal model of sepsis): up to 100% | Production of IL-6 in response to LPS [12]: inhibited

COc1cc(/C=C/c2ccc(OC)c(OC)c2)cc(OC)c1 [TMP, tetramethoxy-piceatannol]
Mortality, percent dead [3]: 44% | Mortality caused by septic shock [3]: significantly reduced mortality | Inhibition of LPS-mediated ISG induction, compared with piceatannol ([5]; in vitro): as effective as piceatannol | Mortality, percent dead ([11]; 1000-1250 μM ip prior to LPS): 38% | Mortality caused by septic shock [11]: significantly reducing mortality

Oc1ccc(/C=C/c2cc(O)cc(O)c2)cc1 [resveratrol, trihydroxy-stilbene]
Water solubility [1]: water soluble
